From ChEMBL document CHEMBL1146267, “2,6-Disubstituted N-arylsulfonyl piperidines as gamma-secretase inhibitors” (Bioorg Med Chem Lett, 2007)

What follows are molecules tested against Gamma-secretase (assay: Inhibition of gamma secretase-mediated amyloid-beta peptid […]).
Format: protein-complex assay, Homo sapiens
`O=C(NCCCn1ccnc1)OCC1CCc2ccc(F)cc2N1S(=O)(=O)c1ccc(Cl)cc1` (configuration not stated) gave an IC50 of 0.27 µM. `CC1CCC2CCCCC2N1S(=O)(=O)c1ccc(Cl)cc1` (configuration not stated) was tested, and the IC50 was 2.5 µM. Molecule `O=C(OCC1CCc2ccc(F)cc2N1S(=O)(=O)c1ccc(Cl)cc1)N1CCCC1` (configuration not stated) has an IC50 of 0.68 µM. In the case of `O=C(NCCCn1ccnc1)OCC1CCCCN1S(=O)(=O)c1ccc(Cl)cc1` (configuration not stated), the IC50 is reported as 15.4 µM. `O=C(OC[C@H]1CCC[C@@H](c2cccc(F)c2)N1S(=O)(=O)c1ccc(Cl)cc1)N1CCC(N2CCCCC2)CC1` [listing 1 of 2 here] gave an IC50 of 0.003 µM. Molecule `O=C(OC[C@H]1CCC[C@@H](c2cccc(F)c2)N1S(=O)(=O)c1ccc(Cl)cc1)N1CCC(N2CCCCC2)CC1` [listing 2 of 2 here] has an IC50 of 0.083 µM. For `CC1CN(C2CCCCC2)CCN1C(=O)OC[C@H]1CCC[C@@H](c2ccccc2)N1S(=O)(=O)c1ccc(Cl)cc1` (mixture of isomers), the IC50 was 0.071 µM. `CC1CN(CC2CC2)CCN1C(=O)OC[C@H]1CCC[C@@H](c2ccccc2)N1S(=O)(=O)c1ccc(Cl)cc1` (mixture of isomers) gave an IC50 of 0.037 µM. Work on `CC1CN(CC2CC2)CCN1C(=O)OC[C@H]1CCC[C@@H](c2cccc(F)c2)N1S(=O)(=O)c1ccc(Cl)cc1` (mixture of isomers) yielded an IC50 of 0.026 µM. With `CC1CC(N2CCCCC2)CCN1C(=O)OC[C@H]1CCC[C@@H](c2cccc(F)c2)N1S(=O)(=O)c1ccc(Cl)cc1` (mixture of isomers) the IC50 was 0.013 µM. `CC1CC(N2CCCCC2)CCN1C(=O)OC[C@H]1CCC[C@@H](c2cc(F)cc(F)c2)N1S(=O)(=O)c1ccc(Cl)cc1` (mixture of isomers) was tested, and the IC50 was 0.007 µM. `C[C@@H]1CCC[C@H](COC(=O)N2CCC(N(C)C3CCN(C)CC3)CC2)N1S(=O)(=O)c1ccc(Cl)cc1` (racemic) gave an IC50 of 0.219 µM. `C[C@@H]1CCC[C@H](COC(=O)N2CCC(N3CCCCC3)CC2)N1S(=O)(=O)c1ccc(Cl)cc1` (racemic) was tested, and the IC50 was 0.076 µM. For `CC[C@@H]1CCC[C@H](COC(=O)N2CCC(N(C)C3CCN(C)CC3)CC2)N1S(=O)(=O)c1ccc(Cl)cc1` (racemic), the IC50 was 0.159 µM. Molecule `O=C(OC[C@H]1CCC[C@@H](Cc2ccccc2)N1S(=O)(=O)c1ccc(Cl)cc1)N1CCC(N2CCCCC2)CC1` (racemic) has an IC50 of 4.77 µM. `O=C(OC[C@H]1CCC[C@@H](c2ccccc2F)N1S(=O)(=O)c1ccc(Cl)cc1)N1CCN(C2CCCCC2)CC1` (racemic) was tested, and the IC50 was 0.017 µM. `O=C(OC[C@H]1CCC[C@@H](c2cccc(F)c2)N1S(=O)(=O)c1ccc(Cl)cc1)N1CCN(C2CCCCC2)CC1` (racemic) showed an IC50 of 0.038 µM. Molecule `O=C(OC[C@H]1CCC[C@@H](c2cccc(F)c2)N1S(=O)(=O)c1ccc(Cl)cc1)N1CCC(N2CCCCC2)CC1` (racemic) has an IC50 of 0.011 µM. Molecule `O=C(OC[C@H]1CCC[C@@H](c2cc(F)ccc2F)N1S(=O)(=O)c1ccc(Cl)cc1)N1CCN(C2CCCCC2)CC1` (racemic) has an IC50 of 0.028 µM. `O=C(OC[C@H]1CCC[C@@H](c2cc(F)cc(F)c2)N1S(=O)(=O)c1ccc(Cl)cc1)N1CCN(C2CCCCC2)CC1` (racemic) showed an IC50 of 0.036 µM. `O=C(OC[C@H]1CCC[C@@H](c2cc(F)cc(F)c2)N1S(=O)(=O)c1ccc(Cl)cc1)N1CCC(N2CCCCC2)CC1` (racemic) was tested, and the IC50 was 0.004 µM. With `O=C(OC[C@H]1CCC[C@@H](c2ccc(F)c(F)c2)N1S(=O)(=O)c1ccc(Cl)cc1)N1CCC(N2CCCCC2)CC1` (racemic) the IC50 was 0.008 µM. For `CN1CCC(N(C)C2CCN(C(=O)OC[C@H]3CCC[C@@H](Cc4ccccc4)N3S(=O)(=O)c3ccc(Cl)cc3)CC2)CC1` (racemic), the IC50 was 12.3 µM. In the case of `O=C(OC[C@H]1CCC[C@@H](c2cc(F)ccc2F)N1S(=O)(=O)c1ccc(Cl)cc1)N1CCC(N2CCCCC2)CC1` (racemic), the IC50 is reported as 0.01 µM. `O=C(OC[C@H]1CCC[C@@H](c2ccc(F)c(F)c2)N1S(=O)(=O)c1ccc(Cl)cc1)N1CCN(C2CCCCC2)CC1` (racemic) showed an IC50 of 0.026 µM. `O=C(OC[C@H]1CCC[C@@H](c2ccccc2)N1S(=O)(=O)c1ccc(Cl)cc1)N1CCN(C2CCCCC2)CC1` (racemic) was tested, and the IC50 was 0.067 µM. Work on `O=C(OC[C@H]1CCC[C@@H](c2ccccc2F)N1S(=O)(=O)c1ccc(Cl)cc1)N1CCC(N2CCCCC2)CC1` (racemic) yielded an IC50 of 0.008 µM. Work on `O=C(OC[C@H]1CCC[C@@H](c2ccccc2)N1S(=O)(=O)c1ccc(Cl)cc1)N1CCC(N2CCCCC2)CC1` (racemic) yielded an IC50 of 0.016 µM. Molecule `C[C@@H]1CCC[C@@H](COC(=O)NCCCn2ccnc2)N1S(=O)(=O)c1ccc(Cl)cc1` (relative stereo) has an IC50 of 6.42 µM. `C[C@@H]1CCC[C@H](COC(=O)NCCCn2ccnc2)N1S(=O)(=O)c1ccc(Cl)cc1` (relative stereo) gave an IC50 of 0.57 µM. Work on `C[C@@H]1CCC[C@H](COC(=O)N2CCCC2)N1S(=O)(=O)c1ccc(Cl)cc1` (relative stereo) yielded an IC50 of 1.97 µM. In the case of `C[C@@H]1CCC[C@@H](COC(=O)N2CCCC2)N1S(=O)(=O)c1ccc(Cl)cc1` (relative stereo), the IC50 is reported as 10.6 µM.
